The source of these data is patent publication US9132099B2, “Medical implants and methods for regulating the tissue response to vascular closure devices” (Vascular Therapies LLC, priority 2001, dated 2015).

Starred links: 1 amine or outer side, 2 acyl side, 3 side chain; linkers in the order of their positions; H or OH if unused. Positions of bridges follow the written chain, without caps; N, C: chain ends. Non-standard residues stand in square brackets, D forms with d. Residues, ends and D or L forms follow the SMILES beside them. Chains are numbered I, II in the order given. Actinocin(9to1) = Cc1c2oc3c(C)ccc(C(=O)[*:1])c3nc-2c(C(=O)[*:2])c(N)c1=O; NMeV = CN[C@H](C(=O)O)C(C)C; Sar = CNCC(=O)O

One series deals with SMC. In words: Smooth muscle cell inhibition on drug-saturated collagen matrix discs. The format is cell-based. To be noted: collagen matrix disc, compound about 5 μg/cm^2, cells counted five days later. How it is done:
(§1) Prefabricated collagen matrices were placed in different antiproliferative drug solutions until complete saturation occurred. […] The collagen matrices were saturated with these compounds at a concentration of 25 μg/ml lyophilized, washed with 0.066 M phosphate buffer of pH 7.4 at 37° C. for 24 hours and cut in the shape of a disc with density of compound of about 5 μg/cm^2. After washing, sterile discs 15 mm in diameter were placed in a 24-well culture plate, and cells were seeded at a density of 5,000/cm^2. Five days later, cell number was counted and enzymatic activity evaluated in the aliquots of media by chromogenic substrate hydrolysis and spectrophotometry.

In another series the test system is Collagenase. The experiment in a line: Collagenase activity in culture media, chromogenic substrate hydrolysis. The format is biochemical. Particulars: aliquots of media, five days, plain matrix = 100. How it is done: as §1, with “spectrophotometry. Among the tested agents in this comparative in vitro test, paclitaxel and rapamycin (sirolimus) performed similarly.” for “spectrophotometry.”

Series [1] has as its system smooth muscle cell. The experiment in a line: Inhibitory concentrations for smooth muscle cell in culture media.
In another series the test system is smooth muscle cells. The experiment in a line: Growth of smooth muscle cells seeded on collagen matrices. The class given is cell-based. To be noted: with changes of media, 7 days observation. How it is done:
To evaluate this parameter, smooth muscle cells at a density of 5,000 cells/cm^2 are seeded onto control tissue culture surface and testing matrices.

The test system of the next series is Human Endothelial Cells. The experiment in a line: [3H]-thymidine uptake assay, human endothelial cells. The format is cell-based. The method, then:
(§2) Human smooth muscle cells and endothelial cells (Cambrex Corp., formerly Clonetics Corp., East Rutherford, N.J.) were seeded (100,000 cells) in 24-well plates overnight. Both cell types were grown and maintained in Opti-MEM (Invitrogen, Carlsbad, Calif.) and 5% fetal bovine serum at 37° C. in a 5% carbon dioxide and 95% atmospheric air. […] Each cell type was allowed to grow for […], last four hours in the presence of [^3H]-thymidine.
(§3) Proliferation of cells was quantified as new DNA synthesis using [^3H]-thymidine uptake assay. After 72 hours of culture, cells were washed twice with cold phosphate buffered saline (PBS), and 1 ml of methanol was added to the contents of each well. The plates were kept at 4° C. for 60 minutes, the cells then washed once with cold PBS, and 500 μl of 0.2 m M NaOH was added to each well, and the plates kept at 4° C. for 30 minutes. The contents of each well were transferred into scintillation vials, and liquid scintillation fluid was added to quantify radioactivity using a liquid scintillation counter and the results expressed as counts per minute. Results are shown in Tables 12 and 13 and corresponding FIGS. 16 and 17, respectively.

For the next series, the system named is Fibroblast. In words: Fibroblast inhibition on drug-saturated collagen matrix discs. To be noted: collagen matrix disc, compound about 5 μg/cm^2, cells counted five days later. The class given is cell-based. The method, then: as §1
Series [2] in a line: Rate of drug release from collagen matrix in vitro, batch assay. The format is physicochemical. To be noted: collagen matrix saturated with the drug. How it is done: Aliquots are collected at various time intervals from the wells. A combination of dispersed and conjugated forms is also prepared. […] The samples are placed in wells and 1 ml of elution media containing serum are added. Aliquots are taken every hour.
These measurements are made using batch assay and, therefore, represent release rates at 0 ml/min flow rate. The results are tabulated in Table 7 and graphically illustrated in FIG. 14. Concentrations of the antiproliferative drug are in μg/ml.

For series [3], the system named is PTFE A-V graft, venous anastamosis. In words: PTFE A-V graft study, histological scoring of graft explants. The format is in vivo. The text has this: A 6.0 mm PTFE graft was anastamosed between the carotid artery and the jugular vein. A total of 19 animals were utilized for this study. At the time of surgical construction of the A-V graft, collagen matrix with or without the drug was implanted at the site of venous anastamosis. Five animals served as controls (Group A, plain collagen matrix, no drug); the remaining 14 animals received treatment. They were divided into two equal groups (B and C) of seven animals each. […] Animals (n=13) were euthanized after 1 month. Tissues were formalin fixed and sent for histology.
Histological assessment of graft explants was performed by examining the following components: (1) the venous anastamotic site; (a) luminal and (b) adventitial surfaces, (2) the venous end away from the anastamosis; (c) luminal and (d) adventitial surfaces and (3) the PTFE graft; (e) luminal and (f) abluminal surfaces away from the anastamosis (FIG. 2). The following parameters were evaluated: intimal thickening, inflammation, thrombus, fibrosis, hemorrhage/fibrin and calcification or any other pathological changes observed. Histological evaluation was scored on a 0 through 4 scale, where 0=no significant change, 1=minimal, 2=mild, 3=moderate and 4=severe.
P-values obtained from semiquantitative analysis of histological findings using ANOVA (t-test unpaired).

Series [4] relates to Human Smooth Muscle Cells. In words: [3H]-thymidine uptake assay, human smooth muscle cells. The format is cell-based. How it is done:
as §2, §3

For series [5], the system named is PTFE vascular graft AV loop, venous anastomosis. The experiment in a line: Porcine PTFE arterio-venous graft model with perivascular rapamycin collagen sleeve. To be noted: pigs. The class given is in vivo. How it is done:
A proof of principle study was performed using a porcine model. A total of six pigs were studied, two as controls and four as treated. A 6 mm PTFE vascular graft was anastomosed between the carotid artery on one side and the contralateral jugular vein. This created an arterio-venous (AV) loop that is similar in construction to the human hemodialysis access loop.
The animals were euthanized and the relevant segments dissected. […] Tissues from treated and untreated animals were obtained, and RNA was prepared and reverse transcribed to cDNA, which was amplified for housekeeping gene b-actin and p21 by PCR.

Series [6] can be described thus: In vitro elution of dexamethasone from collagen matrix. To be noted: by HPLC.
Another series deals with Elastase. The experiment in a line: Elastase activity in culture media, chromogenic substrate hydrolysis. The format is biochemical. To be noted: aliquots of media, five days, plain matrix = 100. How it is done:
as §1

Series [7] has as its system smooth muscle cell. The experiment in a line: Heparin inhibition of smooth muscle cell proliferation. The class given is cell-based. The text has this: In addition, diffusion of heparin from the sleeve can prevent thrombotic events on the inner surface of the shunt and damaged vessel wall for longer periods of time. Furthermore, the concentration of soluble heparin can be increased up to 20,000 U/cm^2 without changing the mechanical characteristics of the matrix. Therefore, anti-smooth muscle cell proliferation as well as antithrombotic effect can be prolonged.

A short description of series [8]: In vitro elution of heparin from collagen-fibrin sleeve with rapamycin and heparin. The format is physicochemical. Particulars: for Eluted Heparin Mass: buffer replenished each day. The text has this: Combining macro- and micro-porosity may increase capacity of the device. Collagen and fibrin matrices were mixed to obtain such a combination. In addition, good mechanical characteristics of collagen improved stability of fibrin.
The collagen fibrin sheaths loaded with medicine (thickness 2 mm) were formed as tubular structures and externally crosslinked using high a concentration of glutaraldehyde (25%) for one minute. This sleeve was made planar on ten occasions, and the spiral shape was restored each time. […] In vitro elution of heparin continues for seven days. Heparin concentration was measured as in Example 10. Buffer for the dilution was replenished each day.

Take `CO[C@H]1C[C@@H]2CC[C@@H](C)[C@@](O)(O2)C(=O)C(=O)N2CCCC[C@H]2C(=O)O[C@H]([C@H](C)C[C@@H]2CC[C@@H](O)[C@H](OC)C2)CC(=O)[C@H](C)/C=C(\C)[C@@H](O)[C@@H](OC)C(=O)[C@H](C)C[C@H](C)/C=C/C=C/C=C/1C` [Rapamycin, (3S,6R,7E,9R,10R,12R,14S,15E,17E,19E,21S,23S,26R,27R,34aS)-9,10,12,13,14,21,22,23,24,25,26,27,32,33,34,34a-hexadecahydro-9,27-dihydroxy-3-[(1R)-2[(1S,3R,4R)-4-hydroxy-3-methoxycyclohexyl]-1-methylethyl]10,21-dimethoxy-6,8,12,14,20,26-hexamethyl-23,27-epoxy-3H-pyrido[2,1-c][1,4] oxaazacyclohentriacontine-1,5,11,28,29 (4H,6H,31H)-pentone]: the “SMC Inhibition %” value with SMC is 94 ± 5%. In addition, in the series on Collagenase, the “Collagenase Activity %” value stood at 137 ± 8%. The “Inhibitory concentrations for smooth muscle cell” value with smooth muscle cell [1] is 0.001 to 0.005 µg/mL. Besides, in the series on smooth muscle cells, the “duration of suppression of cell growth” value is listed as “suppression of cell growth continued throughout the observation period”. Further, the “effect on proliferation (new DNA synthesis)” value (“effect on proliferation” for short) (with Human Endothelial Cells; in series [4]) was “inhibit proliferation” throughout. Further, the “Fibroblast Inhibition %” value in the series on Fibroblast came to 90 ± 12%. The “time of peak release from saturated collagen matrix” value in series [2] was “about seven”. Also, the Collagen degradation result in series [3] (Dose 2 compared with the control group) is on record as “significant”. Further, the degree of fibrosis entry in [3] (control group vs. treatment groups) is “significant difference”. Besides, the degree of inflammation entry in series [3] (treated vs controls) is “no statistical difference”. For the same molecule, the “Expression of p21 mRNA in venous tissue at the perianastamotic site” value in series [5] (30 days, PCR, not in controls) was “observed”. Further, the “neointimal hyperplasia at venous anastomosis” value in series [5] (collagen sleeve approximately 500 μg/cm^2, 30 days) is recorded as “minimal to absent”. Further, the “luminal patency of the vein and the graft” value in [5] (collagen sleeve approximately 500 μg/cm^2, 30 days, vs controls) is on record as “significantly higher luminal patency”.

For `C[C@@H]1C[C@H]2[C@@H]3CCC4=CC(=O)C=C[C@]4(C)[C@@]3(F)[C@@H](O)C[C@]2(C)[C@@]1(O)C(=O)CO` [Dexamethasone], the “Chemical stability through sheet formation, drying storage, and elution process” value in [6] was “confirmed”.

For the molecule `Cc1c2oc3c(C)ccc(C(=O)N[C@@H]4C(=O)N[C@H](C(C)C)C(=O)N5CCC[C@H]5C(=O)N(C)CC(=O)N(C)[C@@H](C(C)C)C(=O)O[C@@H]4C)c3nc-2c(C(=O)N[C@@H]2C(=O)N[C@H](C(C)C)C(=O)N3CCC[C@H]3C(=O)N(C)CC(=O)N(C)[C@@H](C(C)C)C(=O)O[C@@H]2C)c(N)c1=O` [Actinomycin D] (I: T[dV]P[Sar][NMeV] / II: T[dV]P[Sar][NMeV]; ester I:1-I:C, II:1-II:C; linker I:N-II:N via Actinocin(9to1)), the “SMC Inhibition %” value with SMC was determined as 44 ± 11%. Moreover, in the series with Collagenase, the “Collagenase Activity %” value amounted to 55 ± 9%. Besides, the “duration of suppression of cell growth” value in the series with smooth muscle cells is “suppresses cell growth for only a short period of time”. Besides, the “Fibroblast Inhibition %” value in the series with Fibroblast came out at 35 ± 8%. For the same molecule, in the series on Elastase, the “Elastase Activity %” value was found to be 84 ± 11%.

In the case of `CN(Cc1cnc2nc(N)nc(N)c2n1)c1ccc(C(=O)N[C@@H](CCC(=O)O)C(=O)O)cc1` [Methotrexate], the “SMC Inhibition %” value with SMC is given as 32 ± 9%. The “Collagenase Activity %” value with Collagenase amounted to 23 ± 12%. In addition, in the series with Fibroblast, the “Fibroblast Inhibition %” value was determined as 28 ± 6%. Also, the “Elastase Activity %” value in the series on Elastase turned out to be 14 ± 3%.

Take Heparin: the “concentration that effectively inhibits smooth muscle cell proliferation” value in the series on smooth muscle cell [7] is recorded as “about 100 u/ml”. Further, the “duration of in vitro elution of heparin” value in [8] is on record as “seven”. The “Eluted Heparin Mass” value in series [8] (Time 0 days) was 0 u/ml; in [8] (Time 1 days) it was 341 u/ml; in series [8] (Time 2 days), 275 u/ml; in [8] (Time 3 days) it was 188 u/ml; in series [8] (Time 4 days), 103 u/ml; in series [8] (Time 5 days), 57 u/ml. Also, the “Eluted Heparin Mass” value in series [8] (Time 6 days) is listed as 24 u/ml; in [8] (Time 7 days), 8 u/ml. Besides, the “time for which eluted heparin can significantly inhibit smooth muscle cell proliferation” value in series [8] (from the elution profile and about 100 u/ml) is listed as “at least four”.

In the case of `CN(C)[C@@H]1C(O)=C(C(N)=O)C(=O)[C@@]2(O)C(O)=C3C(=O)c4c(O)cccc4[C@@](C)(O)[C@H]3C[C@@H]12` [Tetracycline], the “SMC Inhibition %” value in the series on SMC worked out at 11 ± 8%. In the series on Fibroblast, the “Fibroblast Inhibition %” value came out at 13 ± 5%.

In the case of `C=CC[C@@H]1/C=C(\C)C[C@H](C)C[C@H](OC)[C@H]2O[C@@](O)(C(=O)C(=O)N3CCCC[C@H]3C(=O)O[C@H](/C(C)=C/[C@@H]3CC[C@@H](O)[C@H](OC)C3)[C@H](C)[C@@H](O)CC1=O)[C@H](C)C[C@@H]2OC` [Tacrolimus], the figures for the “effect on proliferation” value (with Human Endothelial Cells; in series [4]) were “sparing endothelial cells” and “preferentially inhibit new DNA synthesis in human smooth muscle cells”, respectively.

`CC(=O)O[C@H]1C(=O)[C@@]2(C)[C@H]([C@H](OC(=O)c3ccccc3)[C@]3(O)C[C@H](OC(=O)[C@H](O)[C@@H](NC(=O)c4ccccc4)c4ccccc4)C(C)=C1C3(C)C)[C@]1(OC(C)=O)CO[C@@H]1C[C@@H]2O` [Paclitaxel]: the “SMC Inhibition %” value in the series on SMC turned out to be 88 ± 6%. Besides, the “Collagenase Activity %” value with Collagenase came to 98 ± 5%. Also, the “effect on proliferation” value (in the series on Human Endothelial Cells; in [4]) was “inhibit proliferation” each time. For the same molecule, the “Fibroblast Inhibition %” value with Fibroblast was determined as 62 ± 11%. Also, the “Elastase Activity %” value in the series on Elastase was 90 ± 4%.
